Assay results from US9492554B2, “Methods and compositions related to viral inhibition” (Clemson University Research Foundation (CURF), priority 2009, dated 2016).

Legend:
[1] = tested on: TAR RNA; assay: UV melting of TAR RNA in presence of ligands (Tm, ΔTm); format: binding, HIV-1; settings: for ΔTm (° C.): TAR RNA with ligand vs control, Table 10; for Tm (° C.): TAR RNA with ligand, control without ligand 69.3
Protocol: The reactions were done in the presence of 10 mM sodium cacodylate, 0.5 mM EDTA, 0.1 mM MgCl2 pH 7.0. The heating rate was 0.3° C./min.
UV melting studies of TAR were performed in the presence and absence of various ligands (FIG. 13).

[2] = tested on: cells
[3] = biological target: HIV-1 TAR RNA; assay: HIV-1 TAR RNA competition FRET binding assay (Tat peptide probe); settings: 100 nM TAR RNA, 100 nM Tat peptide, 25° C., 60 min
Protocol: Before used, HIV-1 TAR RNA (5′-GGC AGA UCUGAG CCU GGG AGC UCU CUG CC-3′, Thermo Scientific) in 10 μM batch in sterile water was heated to 95° C. for 4.5 min, and then cooled rapidly in ice bath for 5 min. This snap-cooling causes the RNA to adopt the kinetically favored hairpin rather than thermodynamically favored duplexes.
The relative affinity of each polyamine for HIV-1 TAR RNA was determined using Fluorescence Resonance Energy Transfer (FRET)-based competitive binding assay with a fluorescein-labeled HIV-1 Tat peptide as described in the literature. The fluorescence experiments were performed with a Spectra Max Fluorimeter (Molecular Devices) at 25° C., with excitation and emission wavelengths of 495 and 570 nm, respectively. All samples were prepared in 96 well plates in 1×TK buffer (50 mM Tris, 20 mM KCl, pH=7.4) with 0.1% Trixton-100 (Sigma).
To a solution of 100 nM HIV-1 TAR RNA and 100 nM fluorescein-labeled HIV-1 Tat peptide, appropriate concentrations (0 nM to 100 μM) of the antagonists were added at 25° C.; total volume of the incubation solution was 80 μL. After 60 min, fluorescence changes of the sample solution were determined by the Spectra Max Fluorimeter Detector.

[4] = biological target: HIV-1 RRE RNA; assay: HIV-1 RRE RNA competition binding assay (fluorescence polarization, Rev peptide probe); settings: 100 nM RRE RNA, 10 nM Rev peptide, 25° C., 1 hour; Table 16
Protocol: Before used, HIV-1 RRE RNA (5′-GGUCUGGGCGCAGCGCAAGCUGACGGUACAGGCC-3′, Thermo Scientific) in 10 μM batch in sterile water was heated to 95° C. for 3 min, and then cooled to ambient temperature over 1 hour.
The relative affinity of each compound for HIV-1 RRE RNA was determined using fluorescence polarization-based competitive binding assay with a fluorescein-labeled HIV-1 Rev peptide. The anisotropy experiments were performed with a Spectra Max Fluorimeter (Molecular Devices) at 25° C., with excitation and emission wavelengths of 485 and 525 nm, respectively. All samples were prepared in 96 well plates in binding buffer (30 mM Hepes, 100 mM KCl, 40 mM NaCl, 10 mM NH4OAc, 10 mM Guanidinium Hydrochloride, 2 mM MgCl2, 0.5 mM EDTA, pH 7.4) with 0.01% triton-X100 (Sigma). The binding data reported for each conjugate are the averages of 3˜5 individual measurements.
A solution of 100 nM RRE RNA and 10 nM fluorescein-labeled HIV-1 Rev peptide was incubated at 25° C. After 10 min, appropriate concentrations (0 nM to 500 μM) of the antagonists were added; total volume of the incubation solution was […]. After 1 hour, the amount of the dissociated fluorescent probe was determined by the Spectra Max fluorescence plate reader. The experimental dose-response data for a given antagonist were fit to a sigmoidal dose-response nonlinear regression model on GraphPad Prism 4.0 to afford the IC50 values for each conjugates (Table 16).

[5] = tested on: HIV; assay: Protection from HIV cytopathic effects; format: cell-based; settings: at 24 microM
[6] = tested on: HIVNL4-3 in MT-2 cells; assay: Release of reverse transcriptase into the culture supernatant; format: cell-based, HIV; settings: for Release of reverse transcriptase into the culture supernatant, Day 2: mean of triplicate infections (SD), microM: DPA119 24, DPA52 25, DPA53 9, DPA54 17, DPA55 4, DPA56 8, DPA121 25, virus control 46,029; for Release of reverse transcriptase into the culture supernatant, Day 4 / Release of reverse transcriptase into the culture supernatant, Day 6: mean of triplicate infections; for Release of reverse transcriptase into the culture supernatant, Day 4: virus control 928,112; for Release of reverse transcriptase into the culture supernatant, Day 6: virus control 1,078,741
Text: The disclosed conjugates also reduce the amount of reverse transcriptase (RT) released into the cell culture supernatant upon in vitro cell culture experiments (Table 14 below). […] It is possible that even though the cells are positive for HIV, they are making much fewer unspliced transcripts, and thus the virion release into the media remains suppressed. […] Anti-HIV activities can be routinely checked by measuring the percentage of cells positive for HIV antigens using immunofluorescence assay (IFA) and for the release of pelletable reverse transcriptase (RT) into the supernatant. For these assays, 500,000 MT-2 cells in 1 ml of media were added to the wells of a 24 well tissue culture plate. Next, 0.5 ml of 4× concentrated compound was added to triplicate wells of the plate. The cells and compounds were incubated for 1 hr at 37 C. Finally, 0.5 ml of HIVNL4-3, produced in H9 cells (a CD4+ lymphoblastoid cell line), 100,000 cpm of RT activity per well, was added to each well. Virus control wells contained no compounds. This inoculum is at a multiplicity of infection less than 1. […] Next, cells were resuspended in the media and 0.5 mls of the total remaining volume was removed for IFA. Cells were combined from their triplicate infections, pelleted, and the enriched cells were air-dried onto glass slides. The dried cells were fixed in acetonemethanol (50:50). After fixing, cells were stained with HIV immunoglobulin, washed in PBS, and counter-stained with FITC-conjugated goat and human IgG. Slides were washed in PBS and the percentage of HIV-positive cells was determined by epifluorescence (Robinson et al. […] The supernatants from each well were precipitated at 4 C overnight in a solution including 30% polyethylene glycol. After precipitation, precipitate was lysed in a solution containing Triton X100, Tris buffer, and DTT. RT activity of each aliquot was determined as incorporation of 3H-dTTP into a poly rA-oligo dT template. After a one hour assay at 37 C, the incorporated dTTP was precipitated onto a ZetaProbe (BioRad) membrane. Slots were excised and placed into liquid scintillation cocktail. After overnight incubation, counts per minute for each sample was determined on a beta counter. Results were calculated as cpm/ml of original culture supernatant (Robinson et al.

[7] = tested on: HIVNL4-3 in MT-2 cells; assay: HIV antigen synthesis in treated cells, immunofluorescence assay (IFA); format: cell-based; settings: for percentage of cells positive for HIV antigens, Day 2: MT-2 cells, microM: DPA119 24, DPA52 25, DPA53 9, DPA54 17, DPA55 4, DPA56 8, DPA121 25, virus control 15%; for percentage of cells positive for HIV antigens, Day 4 / percentage of cells positive for HIV antigens, Day 6: same concentrations, virus control 100%
Protocol: Anti-HIV activities can be routinely checked by measuring the percentage of cells positive for HIV antigens using immunofluorescence assay (IFA) and for the release of pelletable reverse transcriptase (RT) into the supernatant. For these assays, 500,000 MT-2 cells in 1 ml of media were added to the wells of a 24 well tissue culture plate. Next, 0.5 ml of 4× concentrated compound was added to triplicate wells of the plate. The cells and compounds were incubated for 1 hr at 37 C. Finally, 0.5 ml of HIVNL4-3, produced in H9 cells (a CD4+ lymphoblastoid cell line), 100,000 cpm of RT activity per well, was added to each well. Virus control wells contained no compounds. This inoculum is at a multiplicity of infection less than 1. On days 2, 4, and 6, 0.75 mls of supernatants were removed and placed into individual microfuge tubes for RT assay. Next, cells were resuspended in the media and 0.5 mls of the total remaining volume was removed for IFA. Cells were combined from their triplicate infections, pelleted, and the enriched cells were air-dried onto glass slides. The dried cells were fixed in acetonemethanol (50:50). After fixing, cells were stained with HIV immunoglobulin, washed in PBS, and counter-stained with FITC-conjugated goat and human IgG. Slides were washed in PBS and the percentage of HIV-positive cells was determined by epifluorescence (Robinson et al. J Acquire Immune Defic Syndr 2:33-42, 1989).

Row | Structure (SMILES) | ΔTm (° C.) [1] | Tm (° C.) [1] | 5% Toxicity microM [2] | IC50 ([3]; Table 17) | IC50 [4] | protection from HIV cytopathic effects [5] | Release of reverse transcriptase into the culture supernatant, Day 2 [6] | Release of reverse transcriptase into the culture supernatant, Day 4 [6] | Release of reverse transcriptase into the culture supernatant, Day 6 [6] | percentage of cells positive for HIV antigens, Day 2 [7] | percentage of cells positive for HIV antigens, Day 4 [7] | percentage of cells positive for HIV antigens, Day 6 [7] | IC50 ([3]; Table 18)
1 | CN1CCN(c2ccc3nc(-c4ccc(OCc5cn(CCn6cc(CCCCc7cn(C[C@H]8OC(OC9C(O)[C@H](N)CC(N)[C@H]9O[C@H]9OC(CN)[C@@H](O)C(O)C9N)C(O)C8O[C@H]8OC(CN)[C@@H](O)C(O)C8N)nn7)nn6)nn5)cc4)[nH]c3c2)CC1 (some centres unmarked) [DPA113] | 3.1 °C | 72.4 °C | 176 µM | 61300 ± 18100 nM |  |  |  |  |  |  |  |  | 
2 | CN1CCN(c2ccc3nc(-c4ccc(OCc5cn(CCCCCCn6cc(CCCCc7cn(C[C@H]8OC(OC9C(O)[C@H](N)CC(N)[C@H]9O[C@H]9OC(CN)[C@@H](O)C(O)C9N)C(O)C8OC8OC(CN)C(O)C(O)C8N)nn7)nn6)nn5)cc4)[nH]c3c2)CC1 (some centres unmarked) [DPA114] | 3.8 °C | 73.1 °C | 11 µM | 11600 ± 2300 nM |  |  |  |  |  |  |  |  | 
3 | CN1CCN(c2ccc3nc(-c4ccc(OCc5cn(CCCCCCCCn6cc(CCCCc7cn(C[C@H]8OC(OC9C(O)[C@H](N)CC(N)[C@H]9O[C@H]9OC(CN)[C@@H](O)C(O)C9N)C(O)C8O[C@H]8OC(CN)[C@@H](O)C(O)C8N)nn7)nn6)nn5)cc4)[nH]c3c2)CC1 (some centres unmarked) [DPA116] | 3.8 °C | 73.1 °C | 83 µM | 4300 ± 600 nM |  |  |  |  |  |  |  |  | 
4 | CN1CCN(c2ccc3nc(-c4ccc(OCc5cn(CCCCCCCCCCn6cc(CCCCc7cn(C[C@H]8OC(OC9C(O)[C@H](N)CC(N)[C@H]9O[C@H]9OC(CN)[C@@H](O)C(O)C9N)C(O)C8O[C@H]8OC(CN)[C@@H](O)C(O)C8N)nn7)nn6)nn5)cc4)[nH]c3c2)CC1 (some centres unmarked) [DPA117] | 6.3 °C | 75.6 °C | 41 µM | 1300 ± 200 nM | 15500 ± 6300 nM |  |  |  |  |  |  |  | 
5 | CN1CCN(c2ccc3nc(-c4ccc(OCCn5cc(-c6ccc(-c7cn(C[C@H]8OC(OC9C(O)[C@H](N)CC(N)[C@H]9O[C@H]9OC(CN)[C@@H](O)C(O)C9N)C(O)C8O[C@H]8OC(CN)[C@@H](O)C(O)C8N)nn7)cc6)nn5)cc4)[nH]c3c2)CC1 (some centres unmarked) [DPA118] | 4.8 °C | 74.1 °C | >184 µM | 12100 ± 5400 nM |  |  |  |  |  |  |  |  | 
6 | CN1CCN(c2ccc3nc(-c4ccc(OCCn5cc(COCc6cn(C[C@H]7OC(OC8C(O)[C@H](N)CC(N)[C@H]8O[C@H]8OC(CN)[C@@H](O)C(O)C8N)C(O)C7O[C@H]7OC(CN)[C@@H](O)C(O)C7N)nn6)nn5)cc4)[nH]c3c2)CC1 (some centres unmarked) [DPA119] | 4.2 °C | 73.5 °C | 94 µM | 464 ± 146 nM |  | 16% | 16,576 (3,815) cpm/ml | 241,955 cpm/ml | 399,421 cpm/ml | 5-7% | 90% | 100% | 
7 | CN1CCN(c2ccc3nc(-c4ccc(OCCn5cc(CCCc6cn(C[C@H]7OC(OC8C(O)[C@H](N)CC(N)[C@H]8O[C@H]8OC(CN)[C@@H](O)C(O)C8N)C(O)C7O[C@H]7OC(CN)[C@@H](O)C(O)C7N)nn6)nn5)cc4)[nH]c3c2)CC1 (some centres unmarked) [DPA120] | 3.9 °C | 73.2 °C | 94 µM | 1700 ± 300 nM | 15300 ± 6900 nM |  |  |  |  |  |  |  | 
8 | CN1CCN(c2ccc3nc(-c4ccc(OCCn5cc(CCCCc6cn(C[C@H]7OC(OC8C(O)[C@H](N)CC(N)[C@H]8O[C@H]8OC(CN)[C@@H](O)C(O)C8N)C(O)C7O[C@H]7OC(CN)[C@@H](O)C(O)C7N)nn6)nn5)cc4)[nH]c3c2)CC1 (some centres unmarked) [DPA121] |  |  | >186 µM | 686 ± 110 nM | 30500 ± 11100 nM |  | 26,499 (5,566) cpm/ml | 579,856 cpm/ml | 880,573 cpm/ml | 15% | 100% | 100% | 
9 | CN1CCN(c2ccc3nc(-c4ccc(OCCn5cc(CCCCCCc6cn(C[C@H]7OC(OC8C(O)[C@H](N)CC(N)[C@H]8O[C@H]8OC(CN)[C@@H](O)C(O)C8N)C(O)C7O[C@H]7OC(CN)[C@@H](O)C(O)C7N)nn6)nn5)cc4)[nH]c3c2)CC1 (some centres unmarked) [DPA122] | 5.4 °C | 74.8 °C | 46 µM | 825 ± 145 nM | 5.4 ± 2.4 nM |  |  |  |  |  |  |  | 
10 | CN1CCN(c2ccc3nc(-c4ccc(OCc5cn(C[C@H]6OC(OC7C(O)[C@H](N)CC(N)[C@H]7O[C@H]7OC(CN)[C@@H](O)C(O)C7N)C(O)C6O[C@H]6OC(CN)[C@@H](O)C(O)C6N)nn5)cc4)[nH]c3c2)CC1 (some centres unmarked) [DPA123] |  |  |  |  | 768 ± 309 nM |  |  |  |  |  |  |  | 155 ± 49 nM
